# Source: US10813944B2, “Cyclodextrins as procoagulants” (STICHTING SANQUIN BLOEDVOORZIENING, priority 2016, dated 2020)
# Columns and labels:
# Type in all cases: biochemical, human
# [1] = tested on: thrombin generation in pooled normal plasma; experiment: Calibrated Automated Thrombogram thrombin generation assay in pooled normal plasma; settings: no anticoagulant; cyclodextrin 100 μM unless otherwise indicated; 1 pM TF
# Protocol: FIGS. 3-8, 12, 14-19 and 22-27: Pooled normal plasma was spiked with cyclodextrins (100 μM, unless otherwise indicated) and anticoagulants. The concentrations of the anticoagulants were 100 ng/ml for dabigatran (A), 100 ng/ml for rivaroxaban (B), 60 ng/ml for apixaban (C), 60 ng/ml for edoxaban (D). The plasmas were subjected to thrombin generation analysis as described in the Materials and Methods section with 1 pM tissue factor (TF) as initiator of coagulation.
# (§1) The Calibrated Automated Thrombogram® assays the generation of thrombin in clotting plasma using a microtiter plate reading fluorometer (Fluoroskan Ascent, ThermoLab systems, Helsinki, Finland) and Thrombinoscope® software (Thrombinoscope BV, Maastricht, The Netherlands). The assay was carried out as described by Hemker et al. (Pathofysiol. IIaemost. Thromb. 2003, 33, 4-15), and the Thrombinoscope® manual. Coagulation was triggered by recalcification in the presence of 1 or 5 pM recombinant human tissue factor (Innovin®, Siemens, Marburg, Germany), 4 μM phospholipids, and 417 μM fluorogenic substrate Z-Gly-Gly-Arg-AMC (Bachem, Bubendorf, Switzerland). Fluorescence was monitored using the Fluoroskan Ascent fluorometer (ThermoLabsystems, Helsinki, Finland), and the lag time, peak thrombin, velocity index and area under the curve (ETP) were calculated using the Thrombinoscope® software (Thrombinoscope BV).
# Thrombin generation analyses were performed in pooled normal plasma with and without the addition of anticoagulants.
# [2] = tested on: plasma deficient in coagulation factor VIII; experiment: Thrombin generation assay in plasma deficient in coagulation factor VIII
# Protocol: FIG. 20: Plasma deficient in coagulation factor VIII was spiked with cyclodextrin OKL-1111 (A), OKL-1180 (B), and OKL-1187 (C) at the indicated concentrations.
# as §1
# [3] = tested on: plasma deficient in coagulation factor IX; experiment: Thrombin generation assay in plasma deficient in coagulation factor IX
# Protocol: as §1
# [4] = tested on: plasma of a hemophilia A patient containing anti-FVIII antibodies; experiment: Thrombin generation in plasma of a hemophilia A patient with anti-factor VIII antibodies; settings: anti-FVIII antibodies 50 BU
# Protocol: FIG. 28: Effect of OKL-1111 (A), OKL-1180 (B) and OKL-1187 (C) on coagulation in plasma of a hemophilia A patient with anti-factor VIII antibodies. BU=Bethesda Units.
# as §1
# The patient had developed antibodies against factor VIII prior to plasma withdrawal. The plasma contained high levels of anti-FVIII antibodies (50 BU).
smiles,measurement,setting,value
O=C(O)CCCCCCCSCC1OC2OC3C(CSCCCCCCCC(=O)O)OC(OC4C(CSCCCCCCCC(=O)O)OC(OC5C(CSCCCCCCCC(=O)O)OC(OC6C(CSCCCCCCCC(=O)O)OC(OC7C(CSCCCCCCCC(=O)O)OC(OC8C(CSCCCCCCCC(=O)O)OC(OC1C(O)C2O)C(O)C8O)C(O)C7O)C(O)C6O)C(O)C5O)C(O)C4O)C(O)C3O (stereo not shown) [OKL-1180],procoagulant effect in normal plasma,[1],procoagulant activity
same,procoagulant effect in factor VIII deficient plasma,[2],procoagulant effects
same,procoagulant activity in factor IX deficient plasma,[3],procoagulant activity
same,thrombin generation in hemophilia A patient plasma,[4],concentration-dependently stimulated thrombin generation
